Measured values published in patent publication US8785457B2 (Cellzome Limited, priority 2009, dated 2014).

How the values were obtained:
[1] = tested on: Akt serine-473 phosphorylation; assay: In vitro Phospho-Akt cellular assay (pAkt S473) in HEK293T/17 cells; assay type: cell-based; settings: Homo sapiens, 2 hours
From the text: Activation of mTOR signaling results in phosphorylation of several downstream targets. In cells, mTOR exists in two different protein complexes. The mTOR Complex-1 (mTORC1) phosphorylates and activates S6 Kinase 1 (S6K1) and S6 Kinase 2 (S6K2) (also known as p70S6K) which then phosphorylate S6 Ribosomal Protein (S6RP) (also known as RPS6)3. S6RP is phosphorylated on serine 235, serine 236, serine 240 and serine 244 by both pS6K1 and pS6K2. The mTOR Complex-2 (mTORC2) phosphorylates AKT on serine 473 which activates the AKT signaling pathway.
The assay measures a test compound's inhibition of S6RP serine-240/244 phosphorylation and inhibition of Akt serine-473 phosphorylation in human embryonic kidney derived HEK293T/17 cells (ATCC CRL-11268).
The HEK293T/17 cell line is maintained in DMEM media (Invitrogen catalogue number 41965-039) supplemented with 10% FCS at 37° C. in a 5% CO2 humidified incubator.
Cells are seeded in 96-well plates at 40,000 cells/well (pS6RP S240/244 assay) or 80,000 cells/well (pAkt S473 assay) in 90 μl growth media (DMEM, 2% FCS). Plates are incubated for 1 hour in a humidified incubator to allow the cells to adhere. Cells are treated with 8 concentrations of test compounds or DMSO alone for controls (final DMSO concentration 0.1%) and incubated at 37° C. for 2 hours. Then 20 μl of 5× concentrated lysis buffer (750 mM NaCl, 100 mM Tris pH7.4, 5 mM ADTA, 5 mM EGTA, 5% Triton X-100) is added, plates are sealed and incubated for 15 minutes at 4° C. with gentle shaking. After cell lysis, 25 μl cell lysate is transferred to a MesoScale plate coated with an antibody to pS6RP Ser240/244 (MesoScale Discovery K150DGD-3) or an antibody to pAkt Ser 473 (MesoScale Discovery K151DGD-3). Plates have been blocked before by incubation with 150 μl MesoScale Discovery Blocking Solution-A for 1 hour at room temperature followed by washing with 150 μl 1× Tris wash buffer per well. After the transfer of the cell lysate to the MSD plate, the pS6RP (or pAkt) protein is captured on the coated antibody by incubation at room temperature for 1 hour with gentle shaking. After the capture step the plate is washed three times with 150 μl of 1× Tris wash buffer per well. Then 25 μl detection antibody conjugated with a Sulfo-Tag is added and incubated for 1 hour at room temperature with gentle shaking. Subsequently the antibody solution is removed and the plate is washed 3 times with 150 μl×Tris wash buffer per well and 150 μl Read buffer is added. The plates are analysed on a MSD 2400 Plate Reader (MesoScale Discovery). Data analysis is performed using nonlinear regression for a sigmoidal dose-response with a variable slope.

[2] = tested on: Salmonella typhimurium strain TA1535; assay: Ames plate assay, TA1535
Description: (§1) Certain compounds of the invention were tested for their potential to induce gene mutations in bacterial strains of Salmonella typhimurium (strains TA1535, TA1537, TA98, TA100) and Escherichia coli (strain WP2uvrA(pKM101)) in a bacterial mutation assay in the absence and presence of metabolite activation (rat S9-mix). Compounds are tested at the following dose levels: 50, 150, 500, or 1500 μg/plate.
(§2) Vehicle control treatment is the vehicle used to prepare the test compound formulation diluted to the same extent as the test compound solution. Positive controls using known mutagens are included for each strain with and without rat S9 mix. Four plates are used for the vehicle control and two replicate plates per dose per strain for the treated groups and for each positive control. At the end of incubation the number of revertant colonies per plate are recorded and mean values calculated for each vehicle control, positive control and concentration of test compound used. Results are also expressed as a ratio of the mean values to the mean concurrent vehicle control value (i.e. fold increase).

[3] = tested on: Salmonella typhimurium strain TA98; assay: Ames plate assay, TA98
Description: as §1, §2

[4] = tested on: Salmonella typhimurium strain TA100; assay: Ames plate assay, TA100
Description: as §1, §2

[5] = tested on: Escherichia coli strain WP2uvrA(pKM101); assay: Ames plate assay, WP2uvrA(pKM101)
Description: as §1, §2

## CCOC(=O)N1Cc2nc(-c3ccc(NC(=O)NC4CC4)cc3)nc(N3CCOC[C@@H]3C)c2C1 [Example 34, (S)-ethyl 2-(4-(3-cyclopropylureido)phenyl)-4-(3-methylmorpholino)-5H-pyrrolo[3,4-d]pyrimidine-6(7H)-carboxylate]
[1]
  IC50: 21 nM
[2]; TA1535, +S9, 50 μg/Plate
  Ames plate assay TA1535 +S9: −
[2]; TA1535, +S9, 150 μg/Plate
  Ames plate assay TA1535 +S9: −
[2]; TA1535, +S9, 500 μg/Plate
  Ames plate assay TA1535 +S9: −
[2]; TA1535, +S9, 1500 μg/Plate
  Ames plate assay TA1535 +S9: −
[2]; TA1535, −S9, 50 μg/Plate
  Ames plate assay TA1535 −S9: −
[2]; TA1535, −S9, 150 μg/Plate
  Ames plate assay TA1535 −S9: −
[2]; TA1535, −S9, 500 μg/Plate
  Ames plate assay TA1535 −S9: −
[2]; TA1535, −S9, 1500 μg/Plate
  Ames plate assay TA1535 −S9: −
[3]; TA98, +S9, 50 μg/Plate
  Ames plate assay TA98 +S9: −
[3]; TA98, +S9, 150 μg/Plate
  Ames plate assay TA98 +S9: −
[3]; TA98, +S9, 500 μg/Plate
  Ames plate assay TA98 +S9: −
[3]; TA98, +S9, 1500 μg/Plate
  Ames plate assay TA98 +S9: −
[3]; TA98, −S9, 50 μg/Plate
  Ames plate assay TA98 −S9: −
[3]; TA98, −S9, 150 μg/Plate
  Ames plate assay TA98 −S9: −
[3]; TA98, −S9, 500 μg/Plate
  Ames plate assay TA98 −S9: −
[3]; TA98, −S9, 1500 μg/Plate
  Ames plate assay TA98 −S9: −
[4]; TA100, +S9, 50 μg/Plate
  Ames plate assay TA100 +S9: −
[4]; TA100, +S9, 150 μg/Plate
  Ames plate assay TA100 +S9: −
[4]; TA100, +S9, 500 μg/Plate
  Ames plate assay TA100 +S9: −
[4]; TA100, +S9, 1500 μg/Plate
  Ames plate assay TA100 +S9: −
[4]; TA100, −S9, 50 μg/Plate
  Ames plate assay TA100 −S9: −
[4]; TA100, −S9, 150 μg/Plate
  Ames plate assay TA100 −S9: −
[4]; TA100, −S9, 500 μg/Plate
  Ames plate assay TA100 −S9: −
[4]; TA100, −S9, 1500 μg/Plate
  Ames plate assay TA100 −S9: −
[5]; +S9, 50 μg/Plate
  Ames plate assay WP2uvrA (pKM101) +S9: −
[5]; +S9, 150 μg/Plate
  Ames plate assay WP2uvrA (pKM101) +S9: −
[5]; +S9, 500 μg/Plate
  Ames plate assay WP2uvrA (pKM101) +S9: −
[5]; +S9, 1500 μg/Plate
  Ames plate assay WP2uvrA (pKM101) +S9: −
[5]; −S9, 50 μg/Plate
  Ames plate assay WP2uvrA (pKM101) −S9: −
[5]; −S9, 150 μg/Plate
  Ames plate assay WP2uvrA (pKM101) −S9: −
[5]; −S9, 500 μg/Plate
  Ames plate assay WP2uvrA (pKM101) −S9: −
[5]; −S9, 1500 μg/Plate
  Ames plate assay WP2uvrA (pKM101) −S9: −

## C[C@H]1COCCN1c1nc(-c2ccc(NC(=O)NC3CC3)cc2F)nc2c1CCN(C(=O)N(C)C)C2 [Example 165, (S)-2-(4-(3-cyclopropylureido)-2-fluorophenyl)-N,N-dimethyl-4-(3-methylmorpholino)-5,6-dihydropyrido[3,4-d]pyrimidine-7(8H)-carboxamide]
[1]
  IC50: 37 nM

## C[C@H]1COCCN1c1nc(-c2ccc(NC(=O)NC3CC3)cc2)nc2c1CCN(CC1CC1)C2 [Example 40, (S)-1-cyclopropyl-3-(4-(7-(cyclopropylmethyl)-4-(3-methylmorpholino)-5,6,7,8-tetrahydropyrido[3,4-d]pyrimidin-2-yl)phenyl)urea]
[1]
  IC50: 43 nM

## CCNC(=O)Nc1ccc(-c2nc3c(c(N4CCOC[C@@H]4C)n2)CCN(C(=O)N(C)C)C3)c(F)c1 [Example 176, (S)-2-(4-(3-ethylureido)-2-fluorophenyl)-N,N-dimethyl-4-(3-methylmorpholino)-5,6-dihydropyrido[3,4-d]pyrimidine-7(8H)-carboxamide]
[1]
  IC50: 54 nM

## CCNC(=O)Nc1ccc(-c2nc3c(c(N4CCOC[C@@H]4C)n2)CCN(CC)C3)cc1 [Example 27, (S)-1-ethyl-3-(4-(7-ethyl-4-(3-methylmorpholino)-5,6,7,8-tetrahydropyrido[3,4-d]pyrimidin-2-yl)phenyl)urea]
[1]
  IC50: 16 nM

## CCNC(=O)Nc1ccc(-c2nc3c(c(N4CCOC[C@@H]4C)n2)CCN(C(=O)C(C)C)C3)cc1 [Example 57, (S)-1-ethyl-3-(4-(7-isobutyryl-4-(3-methylmorpholino)-5,6,7,8-tetrahydropyrido[3,4-d]pyrimidin-2-yl)phenyl)urea]
[1]
  IC50: 14 nM

## CCOC(=O)N1Cc2nc(-c3ccc(NC(=O)NC4CC4)cc3F)nc(N3CCOCC3)c2C1 [Example 156, Ethyl 2-(4-(3-cyclopropylureido)-2-fluorophenyl)-4-morpholino-5H-pyrrolo[3,4-d]pyrimidine-6(7H)-carboxylate]
[1]
  IC50: 76 nM

## CCNC(=O)Nc1ccc(-c2nc3c(c(N4CCOC[C@@H]4C)n2)CCN(CC2CC2)C3)cc1 [Example 37, (S)-1-(4-(7-(cyclopropylmethyl)-4-(3-methylmorpholino)-5,6,7,8-tetrahydropyrido[3,4-d]pyrimidin-2-yl)phenyl)-3-ethylurea]
[1]
  IC50: 45 nM

## CCNC(=O)N1Cc2nc(-c3ccc(NC(=O)NC4CC4)cc3)nc(N3CCOC[C@@H]3C)c2C1 [Example 33, (S)-2-(4-(3-cyclopropylureido)phenyl)-N-ethyl-4-(3-methylmorpholino)-5H-pyrrolo[3,4-d]pyrimidine-6(7H)-carboxamide]
[1]
  IC50: 160 nM

## COC(=O)N1Cc2nc(-c3ccc(NC(=O)NC4CC4)cc3F)nc(N3CCOC[C@@H]3C)c2C1 [Example 146, (S)-methyl 2-(4-(3-cyclopropylureido)-2-fluorophenyl)-4-(3-methylmorpholino)-5H-pyrrolo[3,4-d]pyrimidine-6(7H)-carboxylate]
[1]
  IC50: 41 nM

## CCNC(=O)Nc1ccc(-c2nc3c(c(N4CCOC[C@@H]4C)n2)CN(C)C3)cc1 [Example 26, (S)-1-ethyl-3-(4-(6-methyl-4-(3-methylmorpholino)-6,7-dihydro-5H-pyrrolo[3,4-d]pyrimidin-2-yl)phenyl)urea]
[1]
  IC50: 68 nM
